No end group written: not given here.
Columns and labels:
[1] = tested on: isogenic phoP mutant of S. typhimurium (strain CS015 phoP102::Tn10d-Cam); assay: agar (plate) diffusion antibacterial assay, clear zones; type: cell-based; settings: phoP mutant (attenuated, avirulent) S. typhimurium; modified plate diffusion assay; result in words, compared with wild-type
Excerpt: (§1) • Figure 1 provides the consensus structures of mouse cryptdins 1-5 and rat cryptdin-1. Amino acid residues are indicated by single-letter code. Dashed lines are included in mouse cryptdin-4 and rat cryptdin-1 in order to preserve the consensus sequence where these peptides are shorter than other cryptdins. Invariant residues in the enteric cryptdin peptides are boxed. […] Acid extract of jejunum and ileum was chromatographed in 30% acetic acid on a P-60 column. Fractions indicated by the bracket (panel A) were pooled and rechromatographed on the P-60 column (panel B). Cryptdin containing fractions (bracket, panel B) were pooled and further purified by RP-HPLC on 0.46 x 25 cm Vydac C-18 column. Water-acetonitrile gradient elution (--) using 0.13% (vol/vol) HFBA as modifier was used to purify cryptdins 1-5. […] Samples of low molecular weight enteric peptides obtained by P-60 gel filtration (Figure 2, [panel B]) and purified cryptdins were electrophoresed on a 12.5% acid-urea gel and stained with formalin-containing Coomassie Blue. […] After incubation at 37°C for 18 hours, antimicrobial activity was evaluated by measurement of the diameters of the clear zones. […]
(§2) The antimicrobial, or antibacterial, activity of cryptdins can be measured against various pathogens. […]

[2] = tested on: wild-type Salmonella typhimurium (ATCC 10428); assay: as above; type: cell-based; settings: wild-type S. typhimurium; modified plate diffusion assay; result in words, compared with the phoP mutant
Excerpt: as §1, §2

[3] = tested on: phoP mutant S. typhimurium; settings: compared to wild-type parent strains; Fields et al., Miller et al. 1990; cited from earlier work

Substance | antimicrobial activity [1] | antimicrobial activity [2] | sensitivity of mutants in the phoP locus [3]
NP-1: rabbit defensin (VVCACRRALCLPRERRAGFCRIRGRIHPLCCRR; ends and bridges not checked; cysteine pairing not given here; UniProt P01376 63-95, looked up) | quite similar | quite similar | particularly sensitive
NP-2: rabbit defensin (VVCACRRALCLPLERRAGFCRIRGRIHPLCCRR; ends and bridges not checked; cysteine pairing not given here; UniProt P01377 63-95, looked up) | – | – | particularly sensitive
